Measurements published in patent publication US20100144728A1, “Oxazolidinone For The Treatment And Prophylaxis Of Pulmonary Hypertension” (Bayer Schering Pharma AG, priority 2007, published 2010).

Tested on: monocrotaline-induced pulmonary hypertension
Assay: Monocrotaline-induced pulmonary hypertension in rats (haemodynamics, right heart hypertrophy, bleeding)
Type: in vivo, rat
Conditions: for bleeding complications in treated animals: bleeding with fatal outcome or need to euthanize; for effect on haemodynamics in the right heart and pulmonary circulation and right heart hypertrophy (in words): comparison of Example 1, enoxaparin and warfarin
Text: The monocrotaline-induced pulmonary hypertension in rats is a widely used animal model of pulmonary arterial hypertension. The pyrrolizidine alkaloid monocrotaline is metabolized after subcutaneous injection to toxic monocrotaline pyrrole in the liver and leads within a few days to endothelial damage and coagulation activation and thrombosis formation in the pulmonary circulation, followed by remodelling of the small pulmonary arteries (media hypertrophy, de-novo muscularization). A single subcutaneous injection is sufficient to induce pronounced pulmonary hypertension in rats within 4 weeks.
Male Sprague-Dawley rats are used for the model. On day 0, the animals receive a subcutaneous injection of monocrotaline 60 mg/kg. The treatment of the animals starts before the monocrotaline injection and extends over a period of at least 28 days. At the end of the study, the animals undergo haemodynamic investigations, and the arterial and central venous oxygen saturation is measured. The rats are initially anaesthetized with pentobarbital 60 mg/kg for the haemodynamic measurement. The animals are then tracheotomized and artificially ventilated (frequency: 60 breaths/min; inspiration to expiration ratio: 50:50; positive end-expiratory pressure: 1 cm H2O; tidal volume: 10 ml/kg body weight; FIO2: 0.5). The anaesthesia is maintained by isoflurane inhalation anaesthesia. The systemic blood pressure is measured in the left carotid artery by means of a Millar microtip catheter. A polyethylene catheter is advanced through the right jugular vein into the right ventricle for determining the right ventricular pressure. The cardiac output is measured by thermodilution. Following the haemodynamics, the heart is removed and the ratio of right to left ventricle including septum is determined.

## O=C(NC[C@H]1CN(c2ccc(N3CCOCC3=O)cc2)C(=O)O1)c1ccc(Cl)s1 [Example 1, 5-chloro-N-({(5S)-2-oxo-3-[4-(3-oxomorpholin-4-yl)phenyl]-1,3-oxazolidin-5-yl}methyl)thiophene-2-carboxamide]
Table 1, 3-9 mg/kg/d
  RVEDP: 4 mmHg
  dP/dtmax: 2715 mmHg/s
Table 1, 3-9 mg/kg/d, at least 28 days treatment
  RVPmax: 55 mmHg
Table 1, 3-9 mg/kg/d, cardiac output
  CO: 117 mL/min
Table 1, 3-9 mg/kg/d, weight of right heart relative to left heart including septum
  RV/(LV + S): 0.41
Table 1, 10-30 mg/kg/d
  CO: 117 mL/min
  RV/(LV + S): 0.33
  RVEDP: 3 mmHg
  RVPmax: 44 mmHg
  dP/dtmax: 2244 mmHg/s
Table 2, 10-30 mg/kg/d
  CO: 125 mL/min
  RV/(LV + S): 0.38
  RVEDP: 3 mmHg
  RVPmax: 57 mmHg
  dP/dtmax: 3300 mmHg/s
  bleeding complications in treated animals: no bleedings
  effect on haemodynamics in the right heart and pulmonary circulation and right heart hypertrophy (in words): better activity

## CC(=O)CC(c1ccccc1)c1c(O)c2ccccc2oc1=O (stereo not shown) [Warfarin, warfarin, reference compound]
Table 2, 0.1-0.2 mg/kg/d
  CO: 100 mL/min
  RV/(LV + S): 0.46
  RVEDP: 4 mmHg
  RVPmax: 64 mmHg
  dP/dtmax: 4535 mmHg/s
  bleeding complications in treated animals: half of the animals
  effect on haemodynamics in the right heart and pulmonary circulation and right heart hypertrophy (in words): significantly smaller effect

## enoxaparin [reference compound]
Table 2, 20 mg/kg/d
  CO: 77 mL/min
  RV/(LV + S): 0.56
  RVEDP: 6 mmHg
  RVPmax: 85 mmHg
  dP/dtmax: 4644 mmHg/s
  bleeding complications in treated animals: half of the animals
  effect on haemodynamics in the right heart and pulmonary circulation and right heart hypertrophy (in words): no effect
